Literature values as cited in PMC5944028, “Nonclinical and clinical pharmacological characterization of the potent and selective cathepsin K inhibitor MIV-711” (Journal of Translational Medicine, 2018).

Experiments:
urinary CTX-II = details: postmenopausal women with osteoporosis, 12 months; cited from earlier work
[1] = human, weekly dose of 50 mg, cited from earlier work

| Compound | Reduction of urinary CTX-II (urinary CTX-II) | mean plasma AUC0–24h [1] | IC50 ([1]; read-out: trough plasma IC50) |
| --- | --- | --- | --- |
| C[C@@H]1CS/C(=N\NC(=O)C(=O)[C@@H](NC(=O)C2CCCCCC2)C2CCOCC2)N1C [ONO-5334, reference compound] | 50% |  |  |
| CC(C)(F)C[C@H](N[C@@H](c1ccc(-c2ccc(S(C)(=O)=O)cc2)cc1)C(F)(F)F)C(=O)NC1(C#N)CC1 [odanacatib] |  | 6 to 7 µM·h | 50 to 60 nM |
